ChEMBL document CHEMBL4842340, “Development of Cagrilintide, a Long-Acting Amylin Analogue” (J Med Chem, 2021)
≈ marks a conversion by molar mass, not a printed value. *1 amine or outer side, *2 acyl side, *3 side chain or, on linkers, in order; H or OH if unused. Where a SMILES comes first, the peptide text is derived from it. Bridges are numbered along the chain shown (N, C = ends). The star is where a group is joined. C20 diacid = O=C(O)CCCCCCCCCCCCCCCCCCC(=O)*; γGlu = O=C(O)[C@H](CCC(=O)[*:2])N[*:1]

Tests used:
[1] = Displacement of [125I]-calcitonin from rat calcitonin receptor expressed in tk-ts 13 cells measured after 120 mins by scintillation proximity assay; assay type: cell-based; settings: tk-ts13
[2] = Agonist activity at human calcitonin receptor expressed in BHK570 cells assessed as increase in intracellular cAMP concentration incubated for 3 hrs in absence of albumin by CRE luciferase reporter gene assay; assay type: cell-based; settings: BHK570, 3 h
[3] = organism: Rattus norvegicus; assay: Ratio of IC50 for displacement of [125I]-calcitonin from rat calcitonin receptor expressed in tk-ts 13 cells to IC50 for displacement of [125I]-amylin from rat AMY3R (CTR+RAMP3) expressed in BHK-13 cells; assay type: cell-based
[4] = organism: Homo sapiens; assay: Ratio of EC50 for human calcitonin receptor expressed in BHK570 cells to EC50 for human AMY3R (CT+RAMP3) expressed in Hollex1 cells; assay type: cell-based
[5] = system: Rattus norvegicus; assay: Reduction in food intake in Sprague-Dawley rat at 3 nmol/kg, sc administered as single dose measured after 24 to 48 hrs relative to control; assay type: functional; set-up: scale not given: the % may be the effect or the level left; settings: time 24-48 hrs
[6] = Solubility of the compound in bis-tris propane at pH 6 by UPLC analysis; assay type: physicochemical; settings: bis-tris propane buffer
[7] = Solubility of the compound in lactate at pH 3 by UPLC analysis; assay type: physicochemical; settings: lactate buffer
[8] = target: Insulin (Homo sapiens) (UniProt P01308); assay: Effect on insulin (unknown origin) amyloid fibril formation assessed as lag time in glycyl-glycine buffer at pH 4 measured after 45 hrs by thioflavin-T fluorescence assay
Chain of Insulin (Homo sapiens) (P01308 whole entry): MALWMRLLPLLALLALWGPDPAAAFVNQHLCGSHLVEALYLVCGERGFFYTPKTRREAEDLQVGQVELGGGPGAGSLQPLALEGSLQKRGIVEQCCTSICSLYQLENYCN

[9] = Solubility of the compound in bis-tris propane at pH 7 by UPLC analysis; assay type: physicochemical; settings: bis-tris propane buffer
[10] = Solubility of the compound in bis-tris propane at pH 8 by UPLC analysis; assay type: physicochemical; settings: bis-tris propane buffer
[11] = Solubility of the compound in lactate at pH 5 by UPLC analysis; assay type: physicochemical; settings: lactate buffer
[12] = Agonist activity at rat AMY3R (CT+RAMP3) expressed in tk-ts13 cells assessed as increase in intracellular cAMP level incuabted for 25 mins by CRE luciferase reporter gene assay; assay type: cell-based; settings: tk-ts13, 25 min
[13] = Agonist activity at human AMY3R (CT+RAMP3) expressed in Hollex1 cells incubated for 3 hrs by luminescence assay; assay type: cell-based; settings: Hollex1, 3 h
[14] = target: Insulin (Homo sapiens) (UniProt P01308); assay: Effect on insulin (unknown origin) amyloid fibril formation assessed as peptide recovery in glycyl-glycine buffer at pH 4 measured after 45 hrs by thioflavin-T fluorescence assay relative to control; set-up: concentration or dose not given beside the values
[15] = organism: Rattus norvegicus; assay: Ratio of EC50 for rat calcitonin receptor expressed in BHK-13 cells to EC50 for rat AMY3R (CT+RAMP3) expressed in tk-ts13 cells; assay type: cell-based
[16] = Displacement of [125I]-amylin from rat AMY3R (CTR+RAMP3) expressed in BHK-13 cells measured after 120 mins by scintillation proximity assay; assay type: cell-based
[17] = organism: Homo sapiens; assay: Ratio of IC50 for displacement of [125I]-calcitonin from human calcitonin receptor expressed in tk-ts 13 cells to IC50 for displacement of [125I]-amylin from human AMY3R (CTR+RAMP3) expressed in BHK-13 cells; assay type: cell-based
[18] = Solubility of the compound in lactate at pH 4 by UPLC analysis; assay type: physicochemical; settings: lactate buffer
[19] = Displacement of [125I]-calcitonin from human calcitonin receptor expressed in tk-ts 13 cells measured after 120 mins by scintillation proximity assay; assay type: cell-based; settings: tk-ts13
[20] = Displacement of [125I]-amylin from human AMY3R (CTR+RAMP3) expressed in BHK-13 cells measured after 120 mins by scintillation proximity assay; assay type: cell-based
[21] = Agonist activity at rat calcitonin receptor expressed in BHK-13 cells assessed as increase in intracellular cAMP concentration incubated for 25 mins by CRE luciferase reporter gene assay; assay type: cell-based; settings: BHK-13, 25 min
[22] = system: Rattus norvegicus; assay: Reduction in food intake in Sprague-Dawley rat at 3 nmol/kg, sc administered as single dose measured upto 24 hrs relative to control; assay type: functional; set-up: scale not given: the % may be the effect or the level left; settings: time hrs <=24
[23] = Solubility of the compound in bis-tris propane at pH 6.5 by UPLC analysis; assay type: physicochemical; settings: bis-tris propane buffer
[24] = Solubility of the compound in bis-tris propane at pH 7.5 by UPLC analysis; assay type: physicochemical; settings: bis-tris propane buffer

Compound	IC50 [1]	EC50 [2]	Ratio IC50 [3]	Ratio EC50 [4]	Activity [5]	solubility [6]	solubility [7]	TIME [8]	solubility [9]	solubility [10]	solubility [11]	EC50 [13]	Activity [14]	IC50 [16]	Ratio IC50 [17]	solubility [18]	IC50 [19]	IC50 [20]	Activity [22]	solubility [23]	also measured
CC[C@H](C)[C@H](NC(=O)[C@@H]1CCCN1C(=O)CNC(=O)[C@H](Cc1ccccc1)NC(=O)[C@H](CC(N)=O)NC(=O)[C@H](CC(N)=O)NC(=O)[C@H](CO)NC(=O)[C@H](CO)NC(=O)[C@H](Cc1cnc[nH]1)NC(=O)[C@H](Cc1cnc[nH]1)NC(=O)[C@H](CC(C)C)NC(=O)[C@H](Cc1ccccc1)NC(=O)[C@H](CCC(=O)O)NC(=O)[C@H](C)NC(=O)[C@H](CC(C)C)NC(=O)[C@H](CCCNC(=N)N)NC(=O)[C@H](CCC(N)=O)NC(=O)[C@@H](NC(=O)[C@H](C)NC(=O)[C@@H]1CSSC[C@H](NC(=O)[C@H](CCCNC(=N)N)NC(=O)CC[C@H](NC(=O)CCCCCCCCCCCCCCCCCCC(=O)O)C(=O)O)C(=O)N[C@@H](CC(N)=O)C(=O)N[C@@H]([C@@H](C)O)C(=O)N[C@@H](C)C(=O)N[C@@H]([C@@H](C)O)C(=O)N1)[C@@H](C)O)C(=O)N[C@@H](CC(C)C)C(=O)N1CCC[C@H]1C(=O)N1CCC[C@H]1C(=O)N[C@H](C(=O)N[C@@H](CC(N)=O)C(=O)N[C@H](C(=O)NCC(=O)N[C@@H](CO)C(=O)N[C@@H](CC(N)=O)C(=O)N[C@H](C(=O)N[C@@H](Cc1ccc(O)cc1)C(N)=O)[C@@H](C)O)C(C)C)[C@@H](C)O ({C20 diacid-γGlu}-RCNTATCATQRLAEFLHHSSNNFGPILPPTNVGSNTY-NH2; disulfide 2-7)	0.087 nM	0.107 nM	3	1	53%	200 µM (≈ 897 µg/mL)	200 µM (≈ 897 µg/mL)	12 h	160 µM (≈ 717 µg/mL)	200 µM (≈ 897 µg/mL)	200 µM (≈ 897 µg/mL)	0.121 nM	26%	0.029 nM	0.2	200 µM (≈ 897 µg/mL)	0.039 nM	0.192 nM	56%	174 µM (≈ 780 µg/mL)	EC50 [12]: 0.188 nM; Ratio EC50 [15]: 3; EC50 [21]: 0.539 nM; solubility [24]: 200 µM (≈ 897 µg/mL)
CC[C@H](C)[C@H](NC(=O)[C@@H]1CCCN1C(=O)CNC(=O)[C@H](Cc1ccccc1)NC(=O)[C@H](CC(N)=O)NC(=O)[C@H](CC(N)=O)NC(=O)[C@H](CO)NC(=O)[C@H](CO)NC(=O)[C@H](Cc1cnc[nH]1)NC(=O)[C@H](Cc1cnc[nH]1)NC(=O)[C@H](CC(C)C)NC(=O)[C@H](Cc1ccccc1)NC(=O)[C@H](CCC(=O)O)NC(=O)[C@H](C)NC(=O)[C@H](CC(C)C)NC(=O)[C@H](CCCNC(=N)N)NC(=O)[C@H](CCC(N)=O)NC(=O)[C@@H](NC(=O)[C@H](C)NC(=O)[C@@H]1CSSC[C@H](NC(=O)CC[C@H](NC(=O)CCCCCCCCCCCCCCCCCCC(=O)O)C(=O)O)C(=O)N[C@@H](CC(N)=O)C(=O)N[C@@H]([C@@H](C)O)C(=O)N[C@@H](C)C(=O)N[C@@H]([C@@H](C)O)C(=O)N1)[C@@H](C)O)C(=O)N[C@@H](CC(C)C)C(=O)N1CCC[C@H]1C(=O)N1CCC[C@H]1C(=O)N[C@H](C(=O)N[C@@H](CC(N)=O)C(=O)N[C@H](C(=O)NCC(=O)N[C@@H](CO)C(=O)N[C@@H](CC(N)=O)C(=O)N[C@H](C(=O)N[C@@H](Cc1ccc(O)cc1)C(N)=O)[C@@H](C)O)C(C)C)[C@@H](C)O ({C20 diacid-γGlu}-CNTATCATQRLAEFLHHSSNNFGPILPPTNVGSNTY-NH2; disulfide 1-6)	0.93 nM	0.117 nM	5	1	36%	200 µM (≈ 866 µg/mL)	200 µM (≈ 866 µg/mL)	9 h	200 µM (≈ 866 µg/mL)	200 µM (≈ 866 µg/mL)	200 µM (≈ 866 µg/mL)	0.125 nM	0%	0.182 nM	0.3	200 µM (≈ 866 µg/mL)	0.469 nM	1.35 nM	39%	200 µM (≈ 866 µg/mL)	solubility [24]: 200 µM (≈ 866 µg/mL)
